Measurements reported in US12285404B2, “Prevention of rosacea inflammation” (The Regents of the University of California, priority 2013, dated 2025).

Tests used:
WT and KitWsh-/- mice = experiment: Neuropeptide experiment: intradermal neuropeptide in WT and KitWsh-/- mice, skin mRNA by RT-PCR; type: in vivo, mouse; settings: 100 μL of 1 μM intradermally, 6 hrs
Protocol: WT and KitWsh^−/− mice were injected with PBS or 100 μL of 1 μM neuropeptide (SP, substance P; ADM-2, adrenomedullin-2; PACAP, pituitary adenylate cyclase-activating peptide) intradermally, as indicated. Skin biopsies were harvested 6 hrs after injection and mRNA expressions of (a) proteases (chymase, tryptase, Mmp-9 and Mmp-1) and (b) proinflammatory cytokines (Cxcl2 and Tnf-α) were assessed by RT-PCR. Statistics: two-way ANOVA*p<0.05, **p<0.01, ***p<0.001 (n=3).
For the neuropeptide experiment, 100 μL of 1 μM neuropeptide or PBS was injected into mice intradermally. Skin biopsies were taken 6 hrs after injection.
(§1) cDNA was synthesized from RNA using the iScript cDNA Synthesis Kit (BioRad, Hercules, CA) according to the manufacturer's protocol. cDNA was normalized using a NanoDrop spectrophotometer (Thermo Fisher Scientific Inc.). Probes from TagMan Gene Expression Assays (Applied Biosystems ABI, Foster City, CA) were used to analyze gene expressions with following to the manufacturer's instructions. Gapdh mRNA was used as an internal control to validate RNA for each sample. mRNA expression was calculated as the relative expression to Gapdh mRNA, and all data are presented as fold change of each control.
Rosacea flare-ups are frequently initiated by face flushing due to neuronal dysfunction and increased release of pituitary adenylate cyclase-activating peptide (PACAP) (Schwab et al., 2011). To investigate whether neuropeptides (NPs) require MC activation for the development of the inflammatory response in rosacea, 100 μL of 1 μM NP (substance P: SP, adrenomedullin-2: ADM-2, PACAP) was injected intradermally into WT and MC deficient mice. […] Moreover, these same MC enzymes can further increase the levels of free Cath LL-37 and amplify the inflammatory response.

[1] = test system: WT (C57BL/6) and MC-deficient (KitWsh-/-) mice; experiment: Rosacea mouse model: intradermal Cath LL-37 in WT and MC-deficient (KitWsh-/-) mice; type: in vivo
Protocol: (a) Human biopsy samples from healthy and rosacea subjects were assessed for chymase and Mmp-9 mRNA expressions (n=6). (b) Photographs of the rosacea mouse model. 24 hrs after removal of the hair, the back skins of wild type (C57BL/6) and MC-deficient (KitWsh^−/−) mice were injected intradermally with 50 μl of 320 μM Cath LL-37 or filtered PBS twice a day for 2 days. Clinical observation was carried out for 72 hours. (c) Skins from WT, WT MC reconstituted KitWsh^−/− and KitWsh^−/− mice were challenged as indicated and harvested after 72 hours of observation. Mmp-9 mRNA expression in each sample was assessed by RT-PCR. (d) Assessment of MMP protease activities in WT mouse skin following challenge with PBS or the indicated amounts of Cath LL-37. (e) Skin biopsies from WT or KitWsh^−/− mice were analyzed by RT-PCR for the expression of MC proteases at 0, 1, 4, and 24 hrs after Cath LL-37 challenge. Statistics: Mann Whitney test, one-way and two-way ANOVA*p<0.05, **p<0.01, ***p<0.001 (1b-1e: n=3).
(§2) (a) Bone marrow derived mouse MCs were challenged in vitro with 10 ug/mL Cath LL-37 or PBS as indicated. The cells were harvested at different time points and the mRNA was extracted and assessed by RT-PCR for tryptase, chymase and Mmp-9 expression. (b) Cell culture supernatant from bone marrow derived MCs was taken after 24 hrs of Cath LL-37 challenge. MMP and MMP-9 specific activities were measured by assessing cleavage of MMP substrate in the presence or absence of a specific MMP-9 inhibitor, as indicated. (c) Bone marrow derived MCs were treated, as indicated, for 24 hrs before collecting supernatants and assessing degranulation percentage by measuring β-hexosaminidase release. (d) Cultured mouse MCs were challenged with the indicated concentrations of Cath LL-37 for 24 or 48 hrs before supernatants were collected and the amounts of IL-6 secretion were measured. (e) Il-6 mRNA expression was measured by RT-PCR in mouse skin biopsies after 0, 1, 4, and 24 hrs of Cath LL-37 challenge in WT and MC deficient mice, as indicated. Statistics: t-test ***p<0.001 (n=3).
Mast cell deficient (C57BL/6-KitWsh^−/−) mice were bred. KitWsh^−/− mice bearing the W-sash (Wsh) inversion mutation have MC deficiency, but lack anemia and sterility. […] Wild type mice (C57BL/6) were utilized as control. Mice were shaved 24 hrs before intradermal injection with 50 μl of 50 μM or 320 μM of Cath LL-37 or filtered PBS (n=3), twice a day for 2 days and skin biopsies were taken after 72 hours of observation. Total RNA was extracted and purified by RNeasy Mini Kit (QIAGEN science). For the time course observation, skin biopsies of WT and MC deficient mice were taken at 1, 4, and 24 hrs after Cath LL-37 injection.
BMMC reconstitution in KitWsh−/− mice. 4×10^6 cells of C57BL/6 mature BMMCs were diluted in filtered PBS and injected into the shaved back skin of 6 week old C57BL/6− KitWsh^−/− mice (400 μl; 8×50 μl injections) intradermally. After 6 weeks, MCs were confirmed as resident cells in skin by toluidine blue staining.
(§3) Total-MMP activities were determined by following previously reported study (Kanada et al., 2012). To determine MMP-9 activity, MMP-9 specific inhibitor I (Thermo Fisher Scientific, Chicago, IL) was used.
as §1
Cath LL-37 was injected intradermally into mast cell deficient mice (KitWsh^−/−) and compared the resulting inflammation with Wild Type (WT) mice. […]

[2] = test system: bone marrow derived mouse MCs; experiment: In vitro Cath LL-37 challenge of bone marrow derived mouse MCs; type: cell-based
Protocol: as §2
Primary MCs were generated from mouse bone marrow and cultured as previously written (Wang et al., 2011). MCs were cultured in Stemline® II Hematopoietic Stem Cell Expansion Medium (Sigma-Aldrich).
as §3, §1
Degranulation percentage was assessed by measuring the activity of β-hexosaminidase in the supernatants as previously described (Wang et al., 2012).
ELISA (ELISA MAX™ Deluxe; BioLegend, San Diego, CA) was utilized to determine mouse IL-6 according to the manufacturer's instructions, normalized to total protein content.
To confirm that mast cells are responsive to direct Cath LL-37 stimulation, bone marrow derived mouse MCs were stimulated with different concentrations of Cath LL-37 at different time points. […] MMP-9 protease activity in the culture medium of MCs stimulated with Cath-LL37 for 24 hrs was confirmed by fluorescence enzymatic activity assay using an MMP specific substrate and an MMP-9 specific inhibitor (FIG. 2b).

[3] = MC-deficient mice after Cath LL-37
[4] = WT mice, 0, 1, 4, 24 hrs after Cath LL-37
[5] = Cath LL-37 stimulated MCs, at 5 hrs
[6] = Cath LL-37 stimulated MCs, at 5 hrs, p<0.001

pituitary adenylate cyclase-activating peptide [PACAP]
Tnf-a mRNA expression in skin (WT and KitWsh-/- mice; MC deficient mice): not in MC deficient mice
Cxcl2 mRNA expression in skin (WT and KitWsh-/- mice; WT mice, p<0.01): significantly increased
Tnf-a mRNA expression in skin (WT and KitWsh-/- mice; WT mice, p<0.01): significantly increased
Tryptase mRNA expression in skin (WT and KitWsh-/- mice; WT mice, p<0.01): dramatically increased
Chymase mRNA expression in skin (WT and KitWsh-/- mice; WT mice, p<0.05): significantly increased
Mmp-1 mRNA expression in skin (WT and KitWsh-/- mice; WT mice, p<0.05): significantly increased
Mmp-9 mRNA expression in skin (WT and KitWsh-/- mice; WT mice, p<0.05): significantly increased

Cath LL-37: LL-37 Cathelicidin antimicrobial peptide, C-terminal 37 amino acids of human cathelicidin
clinical end point observation of skin ([1]; KitWsh-/- mice, intradermal Cath LL-37, at 72 hrs): did not develop any rosacea-like features
chymase expression in skin (time course) [1, 3]: not detectable
tryptase expression in skin (time course) [1, 3]: not detectable
IL-6 mRNA expression in skin ([1]; WT mice following Cath LL-37 challenge): Increased
chymase expression in skin (time course) [1, 4]: expressed immediately after injection
tryptase expression in skin (time course) [1, 4]: expressed immediately after injection
MMP activity in skin ([1]; WT mice, 50 μM and 320 μM Cath LL-37 injected): increases in a dose dependent manner
clinical end point observation of skin ([1]; WT mice, intradermal Cath LL-37 twice a day for 2 days, at 72 hrs): rosacea-like inflammation
Mmp-9 mRNA expression in skin from MC deficient mice compared with WT and WT MC-reconstituted KitWsh-/- mice ([1]; after peptide challenge, 72 hours, p<0.01 vs WT, p<0.05 vs reconstituted): significantly lower
IL-6 mRNA expression in skin ([1]; mast cell deficient mice following Cath LL-37 challenge): not in mast cell deficient mice
secreted IL-6 (ELISA) ([2]; 24 and 48 hrs of stimulation, Cath LL-37 20 nM and 40 nM): high levels
Klk5 mRNA expression [2, 5]: not detectable
Klk6 mRNA expression [2, 5]: not detectable
Mmp-1a mRNA expression [2, 5]: not detectable
Mmp-9 mRNA expression [2, 6]: significantly higher
Tryptase mRNA expression [2, 6]: significantly higher
chymase mRNA expression [2, 6]: significantly higher
MMP-9 protease activity in the culture medium ([2]; MCs stimulated with Cath-LL37 for 24 hrs, MMP specific substrate and MMP-9 specific inhibitor): confirmed
MC degranulation (β-hexosaminidase release) ([2]; low concentration of Cath LL-37 (20 nM), supernatants after 24 hrs): able to induce degranulation
